Reference: patent publication EP4603105A1, “PHARMACEUTICAL COMPOSITION CONTAINING CYCLIC COMPOUND HAVING SELECTIVE KRAS INHIBITORY EFFECT AGAINST HRAS AND NRAS” (CHUGAI SEIYAKU KABUSHIKI KAISHA, priority 2022, dated 2024)
Where two headings read alike, the source gives them in different places. *1 amine or outer side, *2 acyl side, *3 side chain or, on linkers, in order; H or OH if unused. Where a SMILES comes first, the peptide text is derived from it. Bridges are numbered along the chain shown (N, C = ends). [ ]: non-standard residue; d: D form. The star is where a group is joined. hPhe(3-Cl-4-CF3) = N[C@@H](CCc1ccc(C(F)(F)F)c(Cl)c1)C(=O)O; X24 = CC(C)CN([C@@H](Cc1ccc(C(F)(F)F)cc1)C(=O)[*:2])[*:1]; NEtPhe(4-Me) = CCN[C@@H](Cc1ccc(C)cc1)C(=O)O; NMeGly(cPent) = CN[C@H](C(=O)O)C1CCCC1; NMeD = CN[C@@H](CC(=O)O)C(=O)O; NMeL = CN[C@@H](CC(C)C)C(=O)O; Morpholide = C1CN(*)CCO1; NMeA = CN[C@@H](C)C(=O)O; Ac5c = NC1(C(=O)O)CCCC1; Aze = O=C(O)[C@@H]1CCN1; Sar = CNCC(=O)O

Tests used:
[1] = test system: human lung cancer strain NCI-H441; type: cell-based
In short: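 Step one: dispense the test compound in serial DMSO dilutions. Step three: add the reagent and measure […].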

[2] = target: HRAS wild-type protein (Homo sapiens, UniProt P01112); assay: Binding to HRAS by surface plasmon resonance (SPR), KD and KD ratio to KRAS
In short: (§1)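 Captured GDP-RAS (~100–300 RU) was exposed to increasing compound concentrations, 75 s per step, in running buffer with 10 µM GDP, 10 mM MgCl2 and 4% DMSO at pH 7.4.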

[3] = target: GDP-bound NRAS wild-type protein (Homo sapiens, UniProt P01111); assay: Binding to NRAS by surface plasmon resonance (SPR), KD and KD ratio to KRAS
In short: as §1

[4] = ratio of KD value for HRAS wild-type protein to KD value for KRAS (SPR)
[5] = ratio of KD value for GDP-bound NRAS wild-type protein to KD value for KRAS (SPR)
[6] = ratio of KD for HRAS wild-type protein to KD for KRAS
[7] = ratio of KD for GDP-bound NRAS wild-type protein to KD for KRAS
[8] = ratio of the KD value with respect to HRAS wild-type protein to the KD value with respect to KRAS
[9] = ratio of the KD value with respect to GDP-bound NRAS wild-type protein to the KD value with respect to KRAS

Sequence of HRAS wild-type protein (P01112 whole entry): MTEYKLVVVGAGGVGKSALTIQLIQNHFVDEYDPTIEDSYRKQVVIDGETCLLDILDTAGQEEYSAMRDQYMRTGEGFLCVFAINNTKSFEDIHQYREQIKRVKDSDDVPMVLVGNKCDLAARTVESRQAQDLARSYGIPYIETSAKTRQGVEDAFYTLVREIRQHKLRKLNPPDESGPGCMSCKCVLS
Sequence of GDP-bound NRAS wild-type protein (P01111 whole entry): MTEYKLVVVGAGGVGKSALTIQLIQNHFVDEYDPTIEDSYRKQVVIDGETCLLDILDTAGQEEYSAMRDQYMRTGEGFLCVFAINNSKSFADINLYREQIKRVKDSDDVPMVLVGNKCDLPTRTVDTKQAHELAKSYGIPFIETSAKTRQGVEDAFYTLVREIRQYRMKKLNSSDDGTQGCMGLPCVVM

Row | IC50 [1] [nM] | SMILES | HRAS /KRAS [2, 4] | NRAS /KRAS [3, 5] | HRAS /KRAS [2, 6] | NRAS /KRAS [3, 7] | HRAS /KRAS [2, 8] | NRAS /KRAS [3, 9] | IC50 ([1]; NCI-H441 cells, 4 days, CellTiter-Glo, read-out: NCl-H441 IC50) [nM]
1 | 5.3 | CCC[C@H]1C(=O)N[C@@H]([C@@H](C)CC)C(=O)N(C)CC(=O)N(C)[C@H]2C/C=C\CCN(C2=O)[C@@H](Cc2ccc(C)cc2)C(=O)N(C)CC(=O)N[C@@H](CCc2ccc(C(F)(F)F)c(Cl)c2)C(=O)N2C[C@H](OCC)C[C@H]2C(=O)NC2(CC(C)(C)C2)C(=O)N(C)[C@@H](C2CCCC2)C(=O)N(C)[C@H](C(=O)N(C)C)CC(=O)N1C [PP1896] | B (a compound having 3 or more and less than 10 is denoted as B) | A (a compound having 10 or more and less than 20 is denoted as A) |  |  |  |  | 
2 | 4.1 | CCO[C@@H]1C[C@H]2C(=O)NC3(CC(C)(C)C3)C(=O)N(C)[C@@H](C3CCCC3)C(=O)N(C)[C@H](C(=O)N3CCCC3)CC(=O)N(C)[C@H]3CCC/C=C/c4ccc(cc4)C[C@@H](C(=O)N(C)CC(=O)N[C@@H](CCc4cc(F)c(C(F)(F)F)c(F)c4)C(=O)N2C1)N1CC/C=C\C[C@@H](C1=O)N(C)C(=O)CN(C1CC1)C(=O)[C@H]([C@@H](C)CC)NC3=O [PP2583] |  |  | A (a compound having 10 or more and less than 20 is denoted as A) | A (a compound having 10 or more and less than 20 is denoted as A) |  |  | 
3 | 292 | CC[C@H](C)[C@@H]1NC(=O)[C@H](CC(C)C)N(C)C(=O)C[C@@H](C(=O)N2CCOCC2)N(C)C(=O)[C@H](CC(C)C)N(C)C(=O)C2(CCCC2)NC(=O)[C@@H]2CCCN2C(=O)[C@H](CCc2ccc(C(F)(F)F)c(Cl)c2)NC(=O)CN(C)C(=O)[C@H](Cc2ccc(C)cc2)N(CC)C(=O)CN(C)C(=O)CN(C)C1=O [PP0045] ([NMeL]I[Sar][Sar][NEtPhe(4-Me)][Sar][hPhe(3-Cl-4-CF3)]P[Ac5c][NMeL][NMeD]-Morpholide; lactam N-11) |  |  | C (A compound having a KD ratio of 0.1 or more and less than 3 is denoted as C) | C (A compound having a KD ratio of 0.1 or more and less than 3 is denoted as C) |  |  | 
4 | 55.4 | CC[C@H](C)[C@@H]1NC(=O)[C@H](CC(C)C)N(C)C(=O)C[C@@H](C(=O)N2CCOCC2)N(C)C(=O)[C@H](C2CCCC2)N(C)C(=O)C2(CCCC2)NC(=O)[C@@H]2CCCN2C(=O)[C@H](CCc2ccc(C(F)(F)F)c(Cl)c2)NC(=O)CN(C)C(=O)[C@H](Cc2ccc(OC)cc2)N2CC=CC[C@@H](C2=O)N(C)C(=O)CN(C)C1=O [PP0535] |  |  |  |  | B (a compound having 3 or more and less than 10 is denoted as B) | C (A compound having a KD ratio of 0.1 or more and less than 3 is denoted as C) | 
5 | 32.2 | CC[C@H](C)[C@@H]1NC(=O)[C@H](CC(C)C)N(C)C(=O)C[C@@H](C(=O)N2CCOCC2)N(C)C(=O)[C@H](C2CCCC2)N(C)C(=O)C2(CCCC2)NC(=O)[C@@H]2CCCN2C(=O)[C@H](CCc2ccc(C(F)(F)F)c(Cl)c2)NC(=O)CN(C)C(=O)[C@H](Cc2ccc(C(F)(F)F)cc2)N(CC(C)C)C(=O)[C@@H]2CCN2C(=O)[C@H](C)N(C)C1=O [PP0107] ([NMeL]I[NMeA][Aze][X24][Sar][hPhe(3-Cl-4-CF3)]P[Ac5c][NMeGly(cPent)][NMeD]-Morpholide; lactam N-11) |  |  | C (A compound having a KD ratio of 0.1 or more and less than 3 is denoted as C) | C (A compound having a KD ratio of 0.1 or more and less than 3 is denoted as C) |  |  | 
6 | 1.7 | CCO[C@@H]1C[C@H]2C(=O)N(C)C3(CCC3)C(=O)N(C)[C@@H](C3CCCC3)C(=O)N(C)[C@H](C(=O)N(C)C)CC(=O)N(C)[C@@H](CC(C)C)C(=O)N[C@@H]([C@@H](C)CC)C(=O)N(C)CC(=O)N(C)[C@H]3C/C=C\CCN(C3=O)[C@@H](Cc3ccc(C)cc3)C(=O)N(C)CC(=O)N[C@@H](CCc3cc(F)c(C(F)(F)F)c(F)c3)C(=O)N2C1 [PP1790] | B (a compound having 3 or more and less than 10 is denoted as B) | A (a compound having 10 or more and less than 20 is denoted as A) |  |  |  |  | 
7 | 10.3 | CCC[C@H]1C(=O)N[C@@H]([C@@H](C)CC)C(=O)N(C)CC(=O)N(C)[C@H]2C/C=C\CCN(C2=O)[C@@H](Cc2ccc(C)cc2)C(=O)N(C)CC(=O)N[C@@H](CCc2cc(Cl)c3sccc3c2)C(=O)N2C[C@H](OCC)C[C@H]2C(=O)NC2(CC(C)(C)C2)C(=O)N(C)[C@@H](C(CC)CC)C(=O)N(C)[C@H](C(=O)N(C)C)CC(=O)N1C [PP2890] |  |  | A (a compound having 10 or more and less than 20 is denoted as A) | AA (a compound having 20 or more is denoted as AA) |  |  | 
8 | 6.3 | CC[C@H](C)[C@@H]1NC(=O)[C@@H]2CCCc3ccc(cc3)C[C@@H](C(=O)N(C)CC(=O)N[C@@H](CCc3ccc(C(F)(F)F)c(OC)c3)C(=O)N3C[C@H](OC4CCC4)C[C@H]3C(=O)NC3(CC(C)(C)C3)C(=O)N(C)[C@@H](C3CCCC3)C(=O)N(C)[C@H](C(=O)N(C)CC)CC(=O)N2C)N2CC/C=C\C[C@@H](C2=O)N(C)C(=O)CN(C)C1=O [PP3085] |  |  | B (a compound having 3 or more and less than 10 is denoted as B) | A (a compound having 10 or more and less than 20 is denoted as A) |  |  | 
9 | 24.7 | CCCCO[C@H]1CCN2C(=O)[C@H](CCc3cc(F)c(C(F)(F)F)c(F)c3)NC(=O)CN(C)C(=O)[C@H](Cc3ccc(C(F)(F)F)cc3)N3CCCC[C@@H](C3=O)N(C)C(=O)CN(C)C(=O)[C@H]([C@@H](C)CC)NC(=O)[C@H](CC(C)C)N(C)C(=O)C[C@@H](C(=O)N3CCOCC3)N(C)C(=O)[C@H](C3CCCC3)N(C)C(=O)C3(CCC3)NC(=O)[C@H]12 [PP1071] |  |  | B (a compound having 3 or more and less than 10 is denoted as B) | B (a compound having 3 or more and less than 10 is denoted as B) |  |  | 
10 | 14.7 | CCO[C@@H]1C[C@H]2C(=O)NC3(CCC3)C(=O)N(C)[C@@H](C3CCCC3)C(=O)N3CCC[C@@H]3CC(=O)N(C)[C@@H](CC3CC3)C(=O)N[C@@H]([C@@H](C)CC)C(=O)N(C)CC(=O)N(C)[C@H]3C/C=C\CCN(C3=O)[C@@H](Cc3ccc(C(F)(F)F)cc3)C(=O)N(C)CC(=O)N[C@@H](CCc3cc(F)c(C(F)(F)F)c(F)c3)C(=O)N2C1 [PP1613] | B (a compound having 3 or more and less than 10 is denoted as B) | B (a compound having 3 or more and less than 10 is denoted as B) |  |  |  |  | 
11 | 29.4 | CCO[C@@H]1C[C@H]2C(=O)NC3(CC(C)(C)C3)C(=O)N(C)[C@@H](C(CC)CC)C(=O)N(C)[C@H](C(=O)N3CCCC3)CC(=O)N(C)[C@@H](C)C(=O)N[C@@H]([C@@H](C)CC)C(=O)N(C)CC(=O)N(C)[C@H]3C/C=C\CCN(C3=O)[C@@H](Cc3ccc(C)cc3)C(=O)N(C)CC(=O)N[C@@H](CCc3ccc(C(F)(F)F)c(Cl)c3)C(=O)N2C1 [PP2152] |  |  |  |  | A (a compound having 10 or more and less than 20 is denoted as A) | AA (a compound having 20 or more is denoted as AA) | 
12 | 2.5 | CCO[C@@H]1C[C@H]2C(=O)NC3(CC(C)(C)C3)C(=O)N(C)[C@@H](C3CCCC3)C(=O)N(C)[C@H](C(=O)N(C)C)CC(=O)N(C)[C@H]3CCCC/C=C/c4ccc(cc4)C[C@@H](C(=O)N(C)CC(=O)N[C@@H](CCc4ccc(C(F)(F)F)c(OC)c4)C(=O)N2C1)N1CC/C=C\C[C@@H](C1=O)N(C)C(=O)CN(C)C(=O)[C@H]([C@@H](C)CC)NC3=O [PP1832] | B (a compound having 3 or more and less than 10 is denoted as B) | B (a compound having 3 or more and less than 10 is denoted as B) |  |  |  |  | 
13 |  | CCC[C@H]1C(=O)N[C@@H]([C@@H](C)CC)C(=O)N(C)CC(=O)N(C)[C@H]2C/C=C\CCN(C2=O)[C@@H](Cc2ccc(C(F)(F)F)cc2)C(=O)N(C)CC(=O)N[C@@H](CCc2cc(C)c(C(F)F)c(Cl)c2)C(=O)N2C[C@H](OCC)C[C@H]2C(=O)NC2(CC(C)(C)C2)C(=O)N(C)[C@@H](C2CCCC2)C(=O)N(C)[C@H](C(=O)N(C)C)CC(=O)N1C [PP2866] |  |  | A (a compound having 10 or more and less than 20 is denoted as A) | A (a compound having 10 or more and less than 20 is denoted as A) |  |  | 39.6
14 | 11.9 | CCO[C@@H]1C[C@H]2C(=O)NC3(CCC3)C(=O)N(C)[C@@H](C3CCCC3)C(=O)N(C)[C@H](C(=O)N(C)C)CC(=O)N(C)[C@@H](Cc3cccc(Cl)c3)C(=O)N[C@@H]([C@@H](C)CC)C(=O)N(C)CC(=O)N(C)[C@H]3C/C=C\CCN(C3=O)[C@@H](Cc3ccc(C(F)(F)F)cc3)C(=O)N(C)CC(=O)N[C@@H](CCc3cc(F)c(C(F)(F)F)c(F)c3)C(=O)N2C1 [PP1127] |  |  | A (a compound having 10 or more and less than 20 is denoted as A) | AA (a compound having 20 or more is denoted as AA) |  |  | 
15 | 7.5 | CCC[C@H]1C(=O)N[C@@H](C2CCCC2)C(=O)N(C)CC(=O)N(C)[C@H]2C/C=C\CCN(C2=O)[C@@H](Cc2ccc(C)cc2)C(=O)N(C)CC(=O)N[C@@H](CCc2ccc(C(F)(F)F)c(OC)c2)C(=O)N2C[C@H](OCC)C[C@H]2C(=O)NC2(CC(C)(C)C2)C(=O)N(C)[C@@H](C2CCCC2)C(=O)N(C)[C@H](C(=O)N(C)C)CC(=O)N1C [PP2992] |  |  | A (a compound having 10 or more and less than 20 is denoted as A) | AA (a compound having 20 or more is denoted as AA) |  |  | 
